Values quoted from earlier work as cited in article PMC8352984, “Estrogen mediates sex differences in preoptic neuropeptide and pituitary hormone production in medaka” (Communications Biology, 2021).

Experiments:
[1] = system: Fshb expression, gonadotrophs; settings: dispersed rat pituitary cells; cited from earlier work
Text: (§1) Contrary to pomc, fshb expression was female-biased and repressed by Pacap and Vip in a female-specific manner. […] Possibly, Pacap may have a similar mechanism of action in medaka. In medaka, however, the inhibitory effect on fshb is assumed to be primarily driven ...

[2] = system: luteinizing hormone release via Adcyap1r1; set-up: method as in PMID 10949084; settings: goldfish and rat; cited from earlier work
Text: as §1

Pituitary adenylate cyclase-activating polypeptide [Pacap]
fshb expression (in words) [1]: acts directly on gonadotrophs to inhibit Fshb expression | release of luteinizing hormone (in words) [2]: directly stimulates the release of luteinizing hormone via Adcyap1r1
